US20220323406A1, “METHODS AND COMPOSITIONS FOR DIFFERENTIATING STEM CELLS” (Massachusetts Institute of Technology, priority 2019, published 2022)

Legend:
[1] = tested on: ENR+CD organoids (ISC to Paneth cell differentiation); experiment: Primary screen: CCh-stimulated lysozyme secretion LYZ.S, 2.5-D 384-well ENR+CD organoid differentiation; format: cell-based, mouse; details: primary screen
From the text: (§1) High-throughput screening.

[2] = tested on: ENR+CD organoids; experiment: Primary screen: ATP (CellTiter-Glo 3D, CTG) cell number/viability, 2.5-D 384-well ENR+CD organoids; details: primary screen; for Z.CTG: standard z score;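 on all read-outs here: compounds given at plating and again on day 3 over a 6-day differentiation from ENR+CV stem-cell-enriched precursors, ATP measured on day 6, plate median as control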
[3] = tested on: ENR+CD organoids (ISC to Paneth cell differentiation); experiment: Primary screen: basal (non-stimulated) lysozyme secretion LYZ.NS, 2.5-D 384-well ENR+CD organoid differentiation; format: cell-based, mouse; details: primary screen; for Z.LYZ.NS: standard z score
From the text: as §1

[4] = dose 0.08 uM, FC relative to plate median
[5] = dose 0.40 uM, FC relative to plate median
[6] = dose 2.00 uM, FC relative to plate median
[7] = dose 10.00 uM, FC relative to plate median
[8] = dose 0.08 uM, FC vs plate median
[9] = dose 0.40 uM, FC vs plate median
[10] = dose 2.00 uM, FC vs plate median
[11] = dose 10.00 uM, FC vs plate median

Row | SMILES | Dose.FC.LYZ.S [1, 4] [log2 fold change] | Dose.FC.LYZ.S [1, 5] [log2 fold change] | Dose.FC.LYZ.S [1, 6] [log2 fold change] | Dose.FC.LYZ.S [1, 7] [log2 fold change] | Dose.FC.CTG [2, 4] [log2 fold change] | Z.CTG ([2]; dose 0.08 uM) | Dose.FC.CTG [2, 5] [log2 fold change] | Z.CTG ([2]; dose 0.40 uM) | Dose.FC.CTG [2, 6] [log2 fold change] | Z.CTG ([2]; dose 2.00 uM) | Dose.FC.CTG [2, 7] [log2 fold change] | Z.CTG ([2]; dose 10.00 uM) | Dose.FC.LYZ.NS [3, 4] [log2 fold change] | Z.LYZ.NS ([3]; dose 0.08 uM) | Dose.FC.LYZ.NS [3, 5] [log2 fold change] | Z.LYZ.NS ([3]; dose 0.40 uM) | Dose.FC.LYZ.NS [3, 6] [log2 fold change] | Z.LYZ.NS ([3]; dose 2.00 uM) | Dose.FC.LYZ.NS [3, 7] [log2 fold change] | Z.LYZ.NS ([3]; dose 10.00 uM) | also measured
1 | CN1CCC(CNc2ccc3ncc(-c4cccc(OC(F)(F)F)c4)n3n2)CC1 [SGI-1776free base] | 0.159 | 0.088 | 0.011 | −0.317 | 0.170 | 0.407 | 0.278 | 0.665 | 0.212 | 0.506 | −1.033 | −2.468 | 0.116 | 1.013 | 0.042 | 0.362 | 0.012 | 0.108 | −0.205 | −1.784 | –
2 | Cc1ccc(C(=O)N(CCCN)[C@@H](c2oc3cc(Cl)ccc3c(=O)c2Cc2ccccc2)C(C)C)cc1 [SB743921] | −0.321 | −0.329 | −0.340 | −0.350 | −0.485 | −1.159 | −0.777 | −1.855 | −0.485 | −1.158 | −0.542 | −1.294 | −0.232 | −2.017 | −0.247 | −2.148 | −0.264 | −2.297 | −0.238 | −2.068 | –
3 | O=[N+]([O-])c1ccc2c(c1)S(=O)(=O)C=C2 [Stattic] | 0.150 | 0.033 | 0.082 | −0.019 | −0.080 | −0.191 | −0.005 | −0.011 | 0.033 | 0.078 | −0.025 | −0.060 | 0.130 | 1.131 | 0.022 | 0.189 | 0.147 | 1.276 | −0.021 | −0.186 | –
4 | CO[C@H]1C[C@@H]2CC[C@@H](C)[C@@](O)(O2)C(=O)C(=O)N2CCCC[C@H]2C(=O)O[C@H]([C@H](C)C[C@@H]2CC[C@@H](OP(C)(C)=O)[C@H](OC)C2)CC(=O)[C@H](C)/C=C(\C)[C@@H](O)[C@@H](OC)C(=O)[C@H](C)C[C@H](C)/C=C/C=C/C=C/1C [Ridaforolimus (Deforolimus, MK-8669)] | 0.050 | 0.069 | 0.019 | 0.039 | 0.423 | 1.011 | 0.066 | 0.157 | 0.276 | 0.659 | 0.211 | 0.505 | 0.005 | 0.041 | 0.116 | 1.012 | 0.074 | 0.646 | 0.027 | 0.237 | –
5 | COc1cc(N2CCC(N)CC2)ccc1Nc1ncc(Cl)c(-c2c[nH]c3ccccc23)n1 [AZD3463] | – | – | – | – | – | – | – | – | – | – | – | – | – | – | – | – | – | – | – | – | Dose.FC.LYZ.S ([1]; dose 0.08 uM): −0.199 log2 fold change; Dose.FC.LYZ.S ([1]; dose 0.40 uM): −0.293 log2 fold change; Dose.FC.LYZ.S ([1]; dose 2.00 uM): −0.315 log2 fold change; Dose.FC.LYZ.S ([1]; dose 10.00 uM): −0.328 log2 fold change; Dose.FC.CTG ([2]; dose 0.08 uM): −0.275 log2 fold change; Z.CTG (standard z score) ([2]; dose 0.08 uM): −0.657; Dose.FC.CTG ([2]; dose 0.40 uM): −0.341 log2 fold change; Z.CTG (standard z score) ([2]; dose 0.40 uM): −0.814; Dose.FC.CTG ([2]; dose 2.00 uM): −0.772 log2 fold change; Z.CTG (standard z score) ([2]; dose 2.00 uM): −1.843; Dose.FC.CTG ([2]; dose 10.00 uM): −0.960 log2 fold change; Z.CTG (standard z score) ([2]; dose 10.00 uM): −2.293; Dose.FC.LYZ.NS ([3]; dose 0.08 uM): −0.147 log2 fold change; Z.LYZ.NS (standard z score) ([3]; dose 0.08 uM): −1.279; Dose.FC.LYZ.NS ([3]; dose 0.40 uM): −0.190 log2 fold change; Z.LYZ.NS (standard z score) ([3]; dose 0.40 uM): −1.652; Dose.FC.LYZ.NS ([3]; dose 2.00 uM): −0.232 log2 fold change; Z.LYZ.NS (standard z score) ([3]; dose 2.00 uM): −2.021; Dose.FC.LYZ.NS ([3]; dose 10.00 uM): −0.209 log2 fold change; Z.LYZ.NS (standard z score) ([3]; dose 10.00 uM): −1.820
6 | Cc1ccccc1C(C(=O)NC1CCCCC1)N(C(=O)Cn1ccnc1C)c1cccc(F)c1 (stereo not shown) [AGI-5198] | – | – | – | – | – | – | – | – | – | – | – | – | – | – | – | – | – | – | – | – | Dose.FC.LYZ.S ([1]; dose 0.08 uM): 0.092 log2 fold change; Dose.FC.LYZ.S ([1]; dose 0.40 uM): 0.185 log2 fold change; Dose.FC.LYZ.S ([1]; dose 2.00 uM): 0.073 log2 fold change; Dose.FC.LYZ.S ([1]; dose 10.00 uM): −0.005 log2 fold change; Dose.FC.CTG ([2]; dose 0.08 uM): 0.309 log2 fold change; Dose.FC.CTG ([2]; dose 0.40 uM): 0.154 log2 fold change; Dose.FC.CTG ([2]; dose 2.00 uM): 0.281 log2 fold change; Dose.FC.CTG ([2]; dose 10.00 uM): 0.336 log2 fold change; Dose.FC.LYZ.NS ([3]; dose 0.08 uM): 0.055 log2 fold change; Z.LYZ.NS (standard z score) ([3]; dose 0.08 uM): 0.482; Dose.FC.LYZ.NS ([3]; dose 0.40 uM): 0.042 log2 fold change; Z.LYZ.NS (standard z score) ([3]; dose 0.40 uM): 0.362; Dose.FC.LYZ.NS ([3]; dose 2.00 uM): 0.039 log2 fold change; Z.LYZ.NS (standard z score) ([3]; dose 2.00 uM): 0.342; Dose.FC.LYZ.NS ([3]; dose 10.00 uM): −0.007 log2 fold change; Z.LYZ.NS (standard z score) ([3]; dose 10.00 uM): −0.064
7 | O=C(Nc1cccnc1)N1CCC(Cc2cccc(Oc3ccc(C(F)(F)F)cn3)c2)CC1 [PF-3845] | – | – | – | – | – | −0.112 | – | 0.125 | – | −0.246 | – | −0.684 | – | 0.532 | – | −0.668 | – | −0.131 | – | −1.137 | Dose.FC.LYZ.S [1, 8]: 0.027 log2 fold change; Dose.FC.LYZ.S [1, 9]: −0.061 log2 fold change; Dose.FC.LYZ.S [1, 10]: −0.032 log2 fold change; Dose.FC.LYZ.S [1, 11]: −0.195 log2 fold change; Dose.FC.CTG [2, 8]: −0.047 log2 fold change; Dose.FC.CTG [2, 9]: 0.052 log2 fold change; Dose.FC.CTG [2, 10]: −0.103 log2 fold change; Dose.FC.CTG [2, 11]: −0.286 log2 fold change; Dose.FC.LYZ.NS [3, 8]: 0.061 log2 fold change; Dose.FC.LYZ.NS [3, 9]: −0.077 log2 fold change; Dose.FC.LYZ.NS [3, 10]: −0.015 log2 fold change; Dose.FC.LYZ.NS [3, 11]: −0.131 log2 fold change
8 | CNC(=O)[C@H](Cc1ccccc1)NC(=O)[C@H](CC(C)C)[C@H](CSc1cccs1)C(=O)NO [Batimastat (BB-94)] | – | – | – | – | – | – | – | – | – | – | – | – | – | – | – | – | – | – | – | – | Dose.FC.LYZ.S ([1]; dose 0.08 uM): 0.053 log2 fold change; Dose.FC.LYZ.S ([1]; dose 0.40 uM): 0.028 log2 fold change; Dose.FC.LYZ.S ([1]; dose 2.00 uM): 0.056 log2 fold change; Dose.FC.LYZ.S ([1]; dose 10.00 uM): −0.107 log2 fold change; Dose.FC.CTG ([2]; dose 0.08 uM): 0.035 log2 fold change; Z.CTG (standard z score) ([2]; dose 0.08 uM): 0.084; Dose.FC.CTG ([2]; dose 0.40 uM): −0.095 log2 fold change; Z.CTG (standard z score) ([2]; dose 0.40 uM): −0.226; Dose.FC.CTG ([2]; dose 2.00 uM): −0.049 log2 fold change; Z.CTG (standard z score) ([2]; dose 2.00 uM): −0.117; Dose.FC.CTG ([2]; dose 10.00 uM): −0.283 log2 fold change; Z.CTG (standard z score) ([2]; dose 10.00 uM): −0.676; Dose.FC.LYZ.NS ([3]; dose 0.08 uM): −0.003 log2 fold change; Z.LYZ.NS (standard z score) ([3]; dose 0.08 uM): −0.025; Dose.FC.LYZ.NS ([3]; dose 0.40 uM): 0.005 log2 fold change; Z.LYZ.NS (standard z score) ([3]; dose 0.40 uM): 0.042; Dose.FC.LYZ.NS ([3]; dose 2.00 uM): 0.081 log2 fold change; Z.LYZ.NS (standard z score) ([3]; dose 2.00 uM): 0.707; Dose.FC.LYZ.NS ([3]; dose 10.00 uM): −0.075 log2 fold change; Z.LYZ.NS (standard z score) ([3]; dose 10.00 uM): −0.649
9 | OCCn1cc(-c2cnc3nnn(Cc4ccc5ncccc5c4)c3n2)cn1 [PF-04217903] | – | – | – | – | – | 0.326 | – | 0.616 | – | −0.122 | – | 0.276 | – | 0.742 | – | 1.404 | – | 1.060 | – | 0.617 | Dose.FC.LYZ.S [1, 8]: 0.110 log2 fold change; Dose.FC.LYZ.S [1, 9]: 0.265 log2 fold change; Dose.FC.LYZ.S [1, 10]: 0.049 log2 fold change; Dose.FC.LYZ.S [1, 11]: 0.127 log2 fold change; Dose.FC.CTG [2, 8]: 0.136 log2 fold change; Dose.FC.CTG [2, 9]: 0.258 log2 fold change; Dose.FC.CTG [2, 10]: −0.051 log2 fold change; Dose.FC.CTG [2, 11]: 0.116 log2 fold change; Dose.FC.LYZ.NS [3, 8]: 0.085 log2 fold change; Dose.FC.LYZ.NS [3, 9]: 0.161 log2 fold change; Dose.FC.LYZ.NS [3, 10]: 0.122 log2 fold change; Dose.FC.LYZ.NS [3, 11]: 0.071 log2 fold change
10 | O=C(Nc1ccccc1-c1cn2c(CN3CCNCC3)csc2n1)c1cnc2ccccc2n1 [SRT1720] | 0.190 | 0.099 | 0.051 | −0.193 | 0.529 | 1.264 | 0.394 | 0.940 | 0.339 | 0.810 | −1.016 | −2.427 | 0.172 | 1.495 | 0.112 | 0.972 | 0.070 | 0.613 | −0.104 | −0.906 | –
